Laboratory results from PMC9545474, “Anticancer Water‐Soluble Organoruthenium Complexes: Synthesis and Preclinical Evaluation” (Chembiochem, 2022).
Like-named read-outs stand apart in the source and are kept apart here.

Experiments:
[1] = tested on: PNT2 non-cancerous human prostate cells; experiment: 24-hour MTT chemosensitivity assay with 72-hour recovery, PNT2; type: cell-based; conditions: 24 h exposure, 72 h recovery, MTT; read-out: IC50 values ±SD, PNT2
Procedure: (§1) Chemosensitivity studies were undertaken using a 24‐hour MTT assay, with a 72‐hour recovery period. The IC50 values were determined against ovarian A2780 (cisplatin‐sensitive) and A2780cisR (cisplatin‐resistant) cancer cell lines, non‐small‐cell lung H460 cancer cell line, and normal prostate PNT2 cell line, exposed to each of compounds 4–8, cisplatin or the phosphine ligands (Table 1 and S4, Figures S29–S31). […] This is unusual but can be related to solubility issues not visible for the naked eye and thus hindering its activity in cells. […] When tested on their own, the phosphine ligands are not active below 100 μM for all four cell lines. […] This therefore prevents comparison with the well‐known RAPTA family, and more especially with RAPTA−C which bears a PTA ligand and a p‐cym ligand, making this complex relatively similar in terms of geometry with complex 4.[21] […] This confirms the interest of the sulfur coordinating atom in terms of cytotoxicity for organoruthenium complexes.[23]
(§2) Chemosensitivity assay: In vitro chemosensitivity tests were performed against A2780, A2780cisR, PNT2 and H460 cells. Cells were routinely maintained as monolayer cultures in RPMI 1640 medium supplemented with 10 % foetal calf serum, penicillin (100 I.U./mL) and streptomycin (100 μg/mL), sodium pyruvate (1 mM) and L‐glutamine (2 mM). For chemosensitivity studies, cells were seeded in 96‐well plates at a concentration of 7.5×10^3 cells per well and the plates were incubated for 24 h at 37 °C and a 5 % CO2 humidified atmosphere prior to drug exposure.
(§3) Complexes were dissolved in either DMSO (complexes 4, 5, and 8) or PBS (complexes 6 and 7) to provide stock solutions which were further diluted with media to provide a range of final concentrations. Drug‐media solutions were added to cells (the final concentration of DMSO was less than 1 % (v/v) in all cases) and incubated for 24 h at 37 °C and a 5 % CO2 humidified atmosphere. The drug‐media solution was removed from the wells and the cells were washed with PBS (100 μL, twice) and 200 μL of complete fresh media were added to each well. The plates were further incubated for 72 h at 37 °C and a 5 % CO2 humidified atmosphere to allow for a period of recovery. 3‐(4,5‐dimethylthiazol‐2‐yl)‐2,5‐diphenyltetrazolium bromide (MTT) (40 μL, 2.5 mg/mL) was added to each well and plates were incubated for 2 h. All solutions were then removed and 100 μL of DMSO was added to each well in order to dissolve the purple formazan crystals. A Thermo Scientific Multiskan EX microplate photometer was used to measure the absorbance in each well at 570 nm. Cell survival was determined as the absorbance of treated cells divided by the absorbance of controls and expressed as a percentage. The IC50 values were determined from plots of % survival against drug concentration. Each experiment was repeated in triplicates of triplicates and a mean value was obtained and stated as IC50 (μM) ± SD. Untreated cells were used as a negative control, and cells treated with cisplatin were used as a positive control.

[2] = tested on: A2780 ovarian cancer cells; experiment: 24-hour MTT chemosensitivity assay with 72-hour recovery, A2780; type: cell-based, human; conditions: for IC50: 24 h exposure, 72 h recovery, MTT, read-out: IC50 values ±SD, A2780
Procedure: as §1, §2, §3

[3] = tested on: A2780cisR cisplatin-resistant ovarian cancer cells; experiment: 24-hour MTT chemosensitivity assay with 72-hour recovery, A2780cisR; type: cell-based, human; conditions: for IC50: 24 h exposure, 72 h recovery, MTT, read-out: IC50 values ±SD, A2780cisR
Procedure: as §1, §2, §3

[4] = tested on: H460 non-small-cell lung cancer cells; experiment: 24-hour MTT chemosensitivity assay with 72-hour recovery, H460; type: cell-based; conditions: for IC50: 24 h exposure, 72 h recovery, MTT, read-out: IC50 values ±SD, H460
Procedure: as §1, §2, §3

A2780 cells = experiment: JC-10 mitochondrial membrane potential assay by flow cytometry; type: cell-based, human; conditions: A2780, 24 h, complexes at IC50, cisplatin 6.5 µM
From the text: A membrane potential sensitive fluorescent probe JC‐10 was used to determine whether the apoptosis induced by complexes 6 and 8 is accompanied by changes in the mitochondrial membrane potential (ΔΨm) of A2780 cells. JC‐10 aggregates inside mitochondria and emits orange fluorescence. Following membrane […], JC‐10 is disaggregated and this in turn reduces the orange fluorescence.
Figure 8 Effect of complexes 6 and 8 on the mitochondrial membrane potential. […] The percentages of cells with depolarised mitochondrial membrane potential were assessed by flow cytometry after staining with JC‐10. The data are expressed as the means±SD of the three individual experiments.
Mitochondrial membrane potential assay: Analysis of the changes of mitochondrial potential in A2780 cells after exposure to complexes 6 and 8 was carried out using the JC‐10 mitochondrial membrane potential assay kit (abcam®) according to the manufacturer's instructions. Briefly, 1.0×10^6 cells per well were seeded in a 6‐well plate and incubated for 24 at 37 °C and a 5 % CO2 humidified atmosphere. […] Supernatants were removed by suction, and each well was washed with PBS before detaching the cells using trypsin. Staining of the samples was done in tubes protected from light, incubating for 30 min in the dark at room temperature. Samples were immediately analysed on a BD Accuri C6 Plus System Flow Cytometer, reading the reduction of fluorescence in the FL2 channel.

[5] = tested on: non-immortalised lymphocytes; parameters: method as in PMID 33119178; conditions: cited from earlier work
[6] = tested on: ovarian, colon, and lung cancer cell lines; parameters: method as in PMID 32237195; conditions: some ovarian; cited from earlier work
[7] = tested on: A2780 ovarian cancer cells; parameters: method as in PMID 32237195; conditions: read-out: IC50 values ±SD, A2780; cited from earlier work
[8] = tested on: H460 non-small-cell lung cancer cells; parameters: method as in PMID 32237195; conditions: read-out: IC50 values ±SD, H460; cited from earlier work
[9] = tested on: A2780cisR cisplatin-resistant ovarian cancer cells; parameters: method as in PMID 32237195; conditions: read-out: IC50 values ±SD, A2780cisR; cited from earlier work
[10] = Precipitation in drug-medium solutions; type: physicochemical
MCF-7 cell line = tested on: MCF-7 cell line; parameters: method as in PMID 27357845; conditions: read-out: EC50 against MCF-7 cell line; cited from earlier work

## N.N.[Cl][Pt][Cl] [Cisplatin, reference compound]
[1]
  IC50: 12 ± 0.7 µM
[2]
  IC50: 6.5 ± 0.4 µM
[2]; mean IC50 PNT2 / mean IC50 A2780
  Selectivity index (SI), A2780: 1.85
[3]
  IC50: 18 ± 0.6 µM
[3]; IC50 A2780cisR / IC50 A2780
  Selectivity factor (cross-resistance, resistance factor RF): 2.8
[3]; mean IC50 PNT2 / mean IC50 A2780cisR
  Selectivity index (SI), A2780cisR: 0.67
[4]
  IC50: 4.5 ± 0.2 µM
[4]; mean IC50 PNT2 / mean IC50 H460
  Selectivity index (SI), H460: 2.67
A2780 cells; Experiment 1
  % cell population with high orange fluorescence: 88.9%
  % cell population with low orange fluorescence: 11.1%
A2780 cells; Experiment 2
  % cell population with high orange fluorescence: 87%
  % cell population with low orange fluorescence: 13.0%
A2780 cells; Experiment 3
  % cell population with high orange fluorescence: 82.1%
  % cell population with low orange fluorescence: 17.9%
A2780 cells; Summary, mean values ± SD
  % cell population with high orange fluorescence: 86 ± 3.5%

## Cc1ccc(C(C)C)cc1.N#CC1=C(C#N)[S][Ru][S]1 [Complex 3, [(η^6‐p‐cymene)Ru(Mnt)]]
[5]
  Toxicity against non-immortalised lymphocytes from healthy individuals: absence of toxicity
[6]
  Potency relative to cisplatin: 5 to 60 ×
[7]
  IC50: 0.5 ± 0.04 µM
[8]
  IC50: 0.8 ± 0.1 µM
[9]
  IC50: 0.32 ± 0.15 µM

## Cc1ccc(C(C)C)cc1.N#CC1=C(C#N)[S][Ru-]([P+]23CN4CN(CN(C4)C2)C3)[S]1 [Complex 4, (η^6‐p‐cymene)(PTA)Ru(Mnt)]
[10]
  Concentration above which the complex precipitates: higher than 50 μM
[1]
  IC50: ≥ 50 µM
[2]
  IC50: ≥ 50 µM
[3]
  IC50: ≥ 50 µM
[4]
  IC50: ≥ 50 µM

## Cc1ccc(C(C)C)cc1.[Cl][Ru-]1[O][n+]2ccccc2[S]1 [[(η^6‐p‐cymene)Ru(pyrithionato)Cl]]
MCF-7 cell line
  EC50: 3.81 ± 0.06 µM
